Experimental data published in US20090253778A1, “DNA composition against tumor stromal antigen FAP and methods of use thereof” (priority 2006, published 2009).

Key:
[1] = tested on: CT26 colon carcinoma cells; assay: nuclear apoptosis by Hoechst-33342 dye staining in chemoresistant CT26 clone; assay type: cell-based, Murine; conditions: resistant CT26 clone, 48 hours
Experimental: (§1) Murine CT26 and D2F2 carcinoma cells were cultured in the presence of either 1% DMSO, etoposide, 5-fluorouracil, doxorubicin, vinblastine or paclitaxel (Sigma, St. Louis, Mo.) at the concentrations indicated. After 48 hours, apoptotic nuclei were counted after incubation with the DNA-specific Hoechst-33342 dye (2 μM; Molecular Probes, Eugene, Oreg.).
(§2) Two clones of CT26 colon cancer and D2F2 breast cancer cells, respectively, have acquired chemoresistance (see FIG. 1, Panel C).

[2] = tested on: parent CT26 cell line (ATCC #CLR-2326); assay: IC50 in original parent CT26 cell line; assay type: cell-based, Murine; conditions: Mus musculus
Description: as §2

[3] = tested on: D2F2 breast carcinoma cells; assay: prophylactic setting, orthotopic D2F2 tumor growth, with or without doxorubicin; assay type: in vivo, BALB/c mice
Experimental: Oral immunization, tumor cell challenge and treatment with doxorubicin. […] Med., 2002, 8: 1369-1375. Animals were challenged about 10 days later by subcutaneous (s.c.) injection of about 3×10^4 CT26 colon carcinoma cells in the left front flank or by orthotopic (o.t.) injection of about 3×10^5 D2F2 breast cancer cells in the left, second lowest mammary fat pad.
Tumor volume (in mm^3) was calculated by measuring the tumor in 2 dimensions (i.e., length and width, in millimeters) and calculating the volume as one half the length times the square of the width. In the therapeutic setting, the initial tumor cell inoculation was by intravenous (i.v.) injection of about 1×10^5 CT26 colon carcinoma cells followed about 3 and 10 days later by oral vaccinations with control vaccine or active DNA compositions. After about 18 days, the lungs were weighed (normal lung weight was about 0.2 g) and pulmonary tumor metastases were examined and scored by visual evaluation assessing the percentage of lung surface covered by fused metastases as follows: score of 0 for 0% coverage, score of 1 for less than about 20% coverage, score of 2 for about 20-50% coverage, score of 3 for greater than about 50% of lung surface covered. Treatment with doxorubicin was performed in groups of mice with about 10 mg/kg doxorubicin (Sigma) administered i.v., 5, 10 and 15 days after tumor challenge. […]

[4] = tested on: D2F2 breast carcinoma cells; assay: nuclear apoptosis by Hoechst-33342 dye staining in resistant D2F2 cells; assay type: cell-based, Murine
Experimental: as §1, §2

O=c1[nH]cc(F)c(=O)[nH]1 [5-FU, 5-fluorouracil]
nuclear apoptosis (Hoechst-33342 dye staining) ([1]; concentration as high as 100 μM): not able to induce nuclear apoptosis
IC50 [2]: ~1.85 µM

COc1cccc2c1C(=O)c1c(O)c3c(c(O)c1C2=O)C[C@@](O)(C(=O)CO)C[C@@H]3O[C@H]1C[C@H](N)[C@H](O)[C@H](C)O1 [doxorubicin]
tumor growth ([3]; orthotopic D2F2, doxorubicin or PBS 5, 10 and 15 days after challenge): only able to suppress, but not eradicate tumor growth
complete rejection of tumors ([3]; single agent alone): not observed
sensitivity of D2F2 cells ([4]; FIG. 1, Panel C): partially sensitive
nuclear apoptosis (Hoechst-33342 dye staining) ([4]; resistant D2F2 cells, 48 hours, highest concentration of 1 μM): able to induce nuclear apoptosis

CC[C@]1(O)C[C@@H]2CN(CCc3c([nH]c4ccccc34)[C@@](C(=O)OC)(c3cc4c(cc3OC)N(C)[C@H]3[C@@](O)(C(=O)OC)[C@H](OC(C)=O)[C@]5(CC)C=CCN6CC[C@]43[C@@H]65)C2)C1 [vinblastine]
nuclear apoptosis (Hoechst-33342 dye staining) ([1]; only at 5 μM): slight apoptotic effect
